Results from patent US20150342964A1, “DEXAMETHASONE POLYMER IMPLANT FOR PAIN” (Warsaw Orthopedic, Inc., priority 2014, published 2015).
“Also recorded” adds a separate entry of the source.

Tests used:
[1] = Body weight, side effects and adverse reactions observed over the 57-day rat CCI study; settings: systemic, sc 0.02 mg/kg every day, 57-day study
[2] = system: rat chronic constriction injury (CCI) model; experiment: Thermal Paw Withdrawal Latency Test (thermal hyperalgesia) in rat CCI model of neuropathic pain; settings: systemic, subcutaneous 0.02 mg/kg every day from day 7 post-surgery; p<0.05
[3] = system: rat chronic constriction injury (CCI) model; experiment: von Frey Monofilament Test (mechanical/tactile allodynia) in rat CCI model of neuropathic pain; settings: systemic, subcutaneous 0.02 mg/kg every day from day 7 post-surgery

SMILES	overt side effects or adverse reactions at the site of injection [1]	thermal paw withdrawal responses/latencies relative to both PBS and unloaded PLA pellet [2]	mechanical allodynia (paw withdrawal threshold) relative to either PBS or unloaded pellet [3]
Clc1cccc(Cl)c1N=C1NCCN1 [clonidine]	no overt side effects or adverse reactions at the site of injection; also recorded: did not cause any overt side effects or adverse reactions	increased thermal paw withdrawal latencies on various test days	no effect on paw withdrawal threshold responses
C[C@@H]1C[C@H]2[C@@H]3CCC4=CC(=O)C=C[C@]4(C)[C@@]3(F)[C@@H](O)C[C@]2(C)[C@@]1(O)C(=O)CO [dexamethasone, (8S, 9R, 10S, 11S, 13S, 14S, 16R, 17R)-9-Fluoro-11,17-dihydroxy-17-(2-hydroxyacetyl)-10,13,16-trimethyl-6,7,8,11,12,14,15,16-octahydro-cyclopenta[a]phenanthren-3-one]	no overt side effects or adverse reactions at the site of injection; also recorded: did not cause any overt side effects or adverse reactions		
